Assay results as given in patent US20230365592A1 (Agios Pharmaceuticals, Inc., priority 2022, published 2023).

Biological target: T1, human PAH with the R408W mutation (Homo sapiens, UniProt P00439, R408W)
T1 construct: expressed in transfected cells
T1 sequence (P00439 1-452 R408W): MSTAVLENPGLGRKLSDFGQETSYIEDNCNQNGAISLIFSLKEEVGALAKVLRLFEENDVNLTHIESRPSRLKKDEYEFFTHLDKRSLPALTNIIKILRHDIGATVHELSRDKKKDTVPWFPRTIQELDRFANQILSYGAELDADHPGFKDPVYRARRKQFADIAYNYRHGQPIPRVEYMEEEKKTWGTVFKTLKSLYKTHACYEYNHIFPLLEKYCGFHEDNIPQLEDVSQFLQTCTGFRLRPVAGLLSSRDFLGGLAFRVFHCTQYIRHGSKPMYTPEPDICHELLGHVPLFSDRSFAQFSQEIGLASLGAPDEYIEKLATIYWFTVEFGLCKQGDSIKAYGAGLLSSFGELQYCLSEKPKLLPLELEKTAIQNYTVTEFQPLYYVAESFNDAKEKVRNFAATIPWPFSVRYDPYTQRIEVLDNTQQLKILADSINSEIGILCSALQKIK
Assay: Cell Based Phenylalanine Flux Assay;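 further: after compound treatment, cells received sepiapterin plus isotope-labelled Phenylalanine for 4 hours, then labelled Tyrosine in the medium was quantified, 10-point 2-fold dilution series run in duplicate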
Conditions: A375 cells expressing human R408W PAH; 24 hrs compound incubation; 13C-Tyrosine by LC-MS; average where tested multiple times; read-out: AC50

Row | SMILES | AC50
1 | Cn1ccc(-c2nnc(C(=O)N3CCc4[nH]cnc4[C@H]3c3cc4c(OC(F)(F)F)cccn4n3)o2)n1 [Example 1702, (S)-(5-(1-methyl-1H-pyrazol-3-yl)-1,3,4-oxadiazol-2-yl)(4-(4-(trifluoromethoxy)pyrazolo[1,5-a]pyridin-2-yl)-6,7-dihydro-1H-imidazo[4,5-c]pyridin-5(4H)-yl)methanone] | < 500 nM
2 | O=C(c1nnc(-c2ccn(C(F)F)n2)o1)N1CCc2[nH]cnc2[C@H]1c1cc2c(OC(F)(F)F)cccn2n1 [Example 1704, (S)-(5-(1-(difluoromethyl)-1H-pyrazol-3-yl)-1,3,4-oxadiazol-2-yl)(4-(4-(trifluoromethoxy)pyrazolo[1,5-a]pyridin-2-yl)-6,7-dihydro-1H-imidazo[4,5-c]pyridin-5(4H)-yl)methanone] | < 500 nM
3 | O=C(c1nnc(-c2ccn(C(F)(F)F)n2)o1)N1CCc2[nH]cnc2[C@@H]1c1cc2c(OC(F)(F)F)cccn2n1 [Example 1707, (R)-(4-(4-(trifluoromethoxy)pyrazolo[1,5-a]pyridin-2-yl)-6,7-dihydro-1H-imidazo[4,5-c]pyridin-5(4H)-yl)(5-(1-(trifluoromethyl)-1H-pyrazol-3-yl)-1,3,4-oxadiazol-2-yl)methanone] | > 5000 nM
4 | O=C(c1nnc(-c2ccn(C(F)(F)F)n2)o1)N1CCc2[nH]cnc2[C@@H]1c1cc2c(OC(F)F)cccn2n1 [Example 1709, (R)-(4-(4-(difluoromethoxy)pyrazolo[1,5-a]pyridin-2-yl)-6,7-dihydro-1H-imidazo[4,5-c]pyridin-5(4H)-yl)(5-(1-(trifluoromethyl)-1H-pyrazol-3-yl)-1,3,4-oxadiazol-2-yl)methanone] | > 5000 nM
5 | Cc1cccn2nc([C@H]3c4nc[nH]c4CCN3c3nnc(C(F)F)o3)cc12 [Example 1710, (R)-2-(difluoromethyl)-5-(4-(4-methylpyrazolo[1,5-a]pyridin-2-yl)-6,7-dihydro-1H-imidazo[4,5-c]pyridin-5(4H)-yl)-1,3,4-oxadiazole] | > 5000 nM
6 | Cc1ccc2c(C(=O)N3CCc4[nH]cnc4[C@@H]3c3cc4c(C(F)F)cccn4n3)cnn2c1 [Example 1713, (R)-(4-(4-(difluoromethyl)pyrazolo[1,5-a]pyridin-2-yl)-6,7-dihydro-1H-imidazo[4,5-c]pyridin-5(4H)-yl)(6-methylpyrazolo[1,5-a]pyridin-3-yl)methanone] | > 5000 nM
7 | Cc1ccc2c(C(=O)N3CCc4[nH]cnc4[C@H]3c3cc4c(Cl)cccn4n3)cnn2c1 [Example 1714, (S)-(4-(4-chloropyrazolo[1,5-a]pyridin-2-yl)-6,7-dihydro-1H-imidazo[4,5-c]pyridin-5(4H)-yl)(6-methylpyrazolo[1,5-a]pyridin-3-yl)methanone] | < 500 nM
8 | O=C(c1cnn2cc(C3CC3)ccc12)N1CCc2[nH]cnc2[C@H]1c1cc2c(C(F)(F)F)cccn2n1 [Example 1716, (S)-(6-cyclopropylpyrazolo[1,5-a]pyridin-3-yl)(4-(4-(trifluoromethyl)pyrazolo[1,5-a]pyridin-2-yl)-6,7-dihydro-1H-imidazo[4,5-c]pyridin-5(4H)-yl)methanone] | < 500 nM
9 | COc1ccc2c(C(=O)N3CCc4[nH]cnc4[C@H]3c3cc4cccc(C)n4n3)cnn2c1 [Example 1718, (S)-(6-methoxypyrazolo[1,5-a]pyridin-3-yl)(4-(7-methylpyrazolo[1,5-a]pyridin-2-yl)-6,7-dihydro-1H-imidazo[4,5-c]pyridin-5(4H)-yl)methanone] | 500 to 1000 nM
10 | COc1cccn2nc([C@H]3c4nc[nH]c4CCN3C(=O)c3nnc(-c4ccn(C(F)F)n4)o3)cc12 [Example 1722, (R)-(5-(1-(difluoromethyl)-1H-pyrazol-3-yl)-1,3,4-oxadiazol-2-yl)(4-(4-methoxypyrazolo[1,5-a]pyridin-2-yl)-6,7-dihydro-1H-imidazo[4,5-c]pyridin-5(4H)-yl)methanone] | > 5000 nM
11 | COc1cccn2nc([C@@H]3c4nc[nH]c4CCN3C(=O)c3nnc(-c4ccn(C(F)F)n4)o3)cc12 [Example 1723, (S)-(5-(1-(difluoromethyl)-1H-pyrazol-3-yl)-1,3,4-oxadiazol-2-yl)(4-(4-methoxypyrazolo[1,5-a]pyridin-2-yl)-6,7-dihydro-1H-imidazo[4,5-c]pyridin-5(4H)-yl)methanone] | 500 to 1000 nM

Second part, the compound after the results:

Row | AC50 | SMILES
12 | 500 to 1000 nM | COc1ccc2c(C(=O)N3CCc4[nH]cnc4[C@H]3c3cc4c(F)cccn4n3)cnn2c1 [Example 1696, (S)-(4-(4-fluoropyrazolo[1,5-a]pyridin-2-yl)-6,7-dihydro-1H-imidazo[4,5-c]pyridin-5(4H)-yl)(6-methoxypyrazolo[1,5-a]pyridin-3-yl)methanone]
13 | < 500 nM | COc1ccc2c(C(=O)N3CCc4[nH]cnc4[C@H]3c3cc4c(Cl)cccn4n3)cnn2c1 [Example 1698, (S)-(4-(4-chloropyrazolo[1,5-a]pyridin-2-yl)-6,7-dihydro-1H-imidazo[4,5-c]pyridin-5(4H)-yl)(6-methoxypyrazolo[1,5-a]pyridin-3-yl)methanone]
14 | > 5000 nM | COc1ccc2c(C(=O)N3CCc4[nH]cnc4[C@@H]3c3cc4c(Cl)cccn4n3)cnn2c1 [Example 1699, (R)-(4-(4-chloropyrazolo[1,5-a]pyridin-2-yl)-6,7-dihydro-1H-imidazo[4,5-c]pyridin-5(4H)-yl)(6-methoxypyrazolo[1,5-a]pyridin-3-yl)methanone]
15 | < 500 nM | O=C(c1nnc(-c2ccn(C(F)(F)F)n2)o1)N1CCc2[nH]cnc2[C@H]1c1cc2c(OC(F)(F)F)cccn2n1 [Example 1706, (S)-(4-(4-(trifluoromethoxy)pyrazolo[1,5-a]pyridin-2-yl)-6,7-dihydro-1H-imidazo[4,5-c]pyridin-5(4H)-yl)(5-(1-(trifluoromethyl)-1H-pyrazol-3-yl)-1,3,4-oxadiazol-2-yl)methanone]
16 | 500 to 1000 nM | O=C(c1nnc(-c2ccn(C(F)(F)F)n2)o1)N1CCc2[nH]cnc2[C@H]1c1cc2c(OC(F)F)cccn2n1 [Example 1708, (S)-(4-(4-(difluoromethoxy)pyrazolo[1,5-a]pyridin-2-yl)-6,7-dihydro-1H-imidazo[4,5-c]pyridin-5(4H)-yl)(5-(1-(trifluoromethyl)-1H-pyrazol-3-yl)-1,3,4-oxadiazol-2-yl)methanone]
17 | 500 to 1000 nM | Cc1cccn2nc([C@@H]3c4nc[nH]c4CCN3c3nnc(C(F)F)o3)cc12 [Example 1711, (S)-2-(difluoromethyl)-5-(4-(4-methylpyrazolo[1,5-a]pyridin-2-yl)-6,7-dihydro-1H-imidazo[4,5-c]pyridin-5(4H)-yl)-1,3,4-oxadiazole]
18 | 1000 to 5000 nM | COc1ccc2c(C(=O)N3CCc4[nH]cnc4[C@@H]3c3cc4cccc(C)n4n3)cnn2c1 [Example 1719, (R)-(6-methoxypyrazolo[1,5-a]pyridin-3-yl)(4-(7-methylpyrazolo[1,5-a]pyridin-2-yl)-6,7-dihydro-1H-imidazo[4,5-c]pyridin-5(4H)-yl)methanone]
19 | 500 to 1000 nM | COc1ccc2c(C(=O)N3CCc4[nH]cnc4[C@H]3c3cc4cccc(F)n4n3)cnn2c1 [Example 1720, (S)-(4-(7-fluoropyrazolo[1,5-a]pyridin-2-yl)-6,7-dihydro-1H-imidazo[4,5-c]pyridin-5(4H)-yl)(6-methoxypyrazolo[1,5-a]pyridin-3-yl)methanone]
